Test results as given in PubChem BioAssay (NCI).
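These data come from cells grown in 96-well plates and exposed to compound for 48 hours at five concentrations. Here, GI50 denotes the concentration required for 50% inhibition of growth. TGI is the concentration that stops growth completely.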

tested on: DU-145 prostate; experiment: inhibition of tumour cell growth, NCI panel, 48 h

SMILES	GI50 [µM]	TGI [µM]
O=[N+]([O-])c1ccc(CI)cc1	2.78	7.08
COC(=O)c1cc2c(s1)-c1nccc3c1c(nc1ccccc13)C2=O	> 100	> 100
COc1ccc(-c2cc(/C=C/C(=O)c3ccc(OC)c(OC)c3)[nH]n2)cc1	1.4	2.81
Oc1ccc(Nc2c3ccccc3nc3occ(Cl)c23)cc1	22.4	> 100
O=C(Nc1cc(C(F)(F)F)ccc1Cl)c1cccc(NC2=C(Cl)C(=O)N(Cc3ccccc3)C2=O)c1	54.4	> 100
O=[P@@]1(c2ccccc2)O[C@H](COCc2ccccc2)[C@@H](OCc2ccccc2)[C@H](OCc2ccccc2)[C@H]1NCc1ccccc1	4.97	> 100
CSc1ccccc1C#C/C=C\C#Cc1ccccc1N	15.4	45.6
COc1ccc(C(O)(CCC(C)C)C(CN2CCOCC2)c2ccc(Cl)cc2)cc1 (stereo not given)	15.4	29.5
O=C1c2cc3c(cc2-c2c1c1cc(Cl)c(Cl)cc1c(=O)n2C[C@H](O)CO)OCO3	< 0.01	1.8
COc1cc(/C=C\c2cc(OC)c(OC)c(OC)c2)cc(N/C=C\C(=O)c2cc(OC)c(OC)c(OC)c2)c1OC	3.64	> 100
Clc1nc(Cl)nc(Nc2cccc3ccccc23)n1	> 100	> 100
Cc1cc2cc3c(=O)[nH]c(=O)[nH]c3nc2cc1C		> 100
CN(C)c1ncnc2c1ncn2CCn1cnc2c(N(C)C)ncnc21		> 100
O=C(O)c1ccc(C(=O)O)c2c(C(=O)O)ccc(C(=O)O)c12		> 100
S=c1[nH]c2c(Cl)c(Cl)c(Cl)c(Cl)c2[nH]1		> 100
Cc1cc(N(CCCNc2ccnc3cc(Cl)ccc23)Cc2ccc3c(c2)OCO3)nc(N2CCOCC2)n1	0.353	53.8
Cc1ccc(Nc2oc(-c3ccccc3)nc2[P+](c2ccccc2)(c2ccccc2)c2ccccc2)cc1	1.34	4.16
O=C(Nc1ccc(Cl)c(C(F)(F)F)c1)c1ccc(NC2=C(Cl)C(=O)N(Cc3ccccc3)C2=O)cc1	2.45	6.71
COC(=O)c1ccc(-c2c(C#N)[n+](=O)c3cc(Cl)c(Cl)cc3n2[O-])cc1	20.2	40.9
C#Cc1nc(Nc2cc(C)[nH]n2)c2ccccc2n1	0.396	1.7
Cc1nc2cc(Nc3nc(Nc4ccc(F)cc4)nc(-c4cccs4)n3)ccc2n1Cc1ccccc1	7.7	> 100
Oc1ccc2ccccc2c1N=Nc1ccc(Br)cc1		> 100
CC(C)=CCc1cc2c(cc1O)OC[C@H]1c3cc4c(cc3O[C@@H]21)OCO4		> 100
Cn1cc(-c2csc(-c3c[nH]c4ccc(Br)cc34)n2)c2cnccc21	2.25	5.62
CCOC(=O)c1c(-c2ccc(OC)cc2)c(C#N)c2c(C#N)c(N)nn2c1N	4.93	> 100
COc1ccc(Cn2c(N)c(S(=O)(=O)c3ccc(Cl)cc3)c3nc(C#N)c(C#N)nc32)cc1	20.2	> 50

tested on: HCC-2998 colon; experiment: inhibition of tumour cell growth, NCI panel, 48 h

SMILES	GI50 [µM]	TGI [µM]
O=[N+]([O-])c1ccc(CI)cc1	3.43	11.8
COc1ccc(-c2cc(/C=C/C(=O)c3ccc(OC)c(OC)c3)[nH]n2)cc1	2.02	3.97
CCOC(=O)/C=C/c1ccc(C#Cc2ccccc2)cc1	> 100	> 100
O=[P@@]1(c2ccccc2)O[C@H](COCc2ccccc2)[C@@H](OCc2ccccc2)[C@H](OCc2ccccc2)[C@H]1NCc1ccccc1	4.26	> 100
COc1ccc(C(O)(CCC(C)C)C(CN2CCOCC2)c2ccc(Cl)cc2)cc1 (stereo not given)	10.7	24
O=C1c2cc3c(cc2-c2c1c1cc(Cl)c(Cl)cc1c(=O)n2C[C@H](O)CO)OCO3	0.0451	3.29
COc1ccc(/C(=C\C=C(C#N)C#N)Sc2nc3ccccc3s2)cc1	9.02	16.9
COc1cc(/C=C\c2cc(OC)c(OC)c(OC)c2)cc(N/C=C\C(=O)c2cc(OC)c(OC)c(OC)c2)c1OC	8.92	> 100
Clc1nc(Cl)nc(Nc2cccc3ccccc23)n1	> 100	> 100
CN(C)c1ncnc2c1ncn2CCn1cnc2c(N(C)C)ncnc21		> 100
S=c1[nH]c2c(Cl)c(Cl)c(Cl)c(Cl)c2[nH]1		23.6
Cc1cc(N(CCCNc2ccnc3cc(Cl)ccc23)Cc2ccc3c(c2)OCO3)nc(N2CCOCC2)n1	0.329	13.1
Cc1ccc(Nc2oc(-c3ccccc3)nc2[P+](c2ccccc2)(c2ccccc2)c2ccccc2)cc1	1.03	2.4
COC(=O)c1ccc(-c2c(C#N)[n+](=O)c3cc(Cl)c(Cl)cc3n2[O-])cc1	16.9	37.7
C#Cc1nc(Nc2cc(C)[nH]n2)c2ccccc2n1	0.216	0.466
CCOC(=O)c1c(-c2ccc(OC)cc2)c(C#N)c2c(C#N)c(N)nn2c1N	7.64	> 100

tested on: HOP-92 NSCLC; experiment: inhibition of tumour cell growth, NCI panel, 48 h

SMILES	GI50 [nM]	TGI [µM]
O=[N+]([O-])c1ccc(CI)cc1	4250	16.5
Oc1ccc(Nc2c3ccccc3nc3occ(Cl)c23)cc1	90.5	8.96
